In patent US8859512B2, “Anti-viral pyrimidine nucleoside derivatives” (University College Cardiff Consultants Limited, priority 2006, dated 2014):
Values joined by “and” are separate entries in the source; they are usually repeats but may differ in a detail not shown here. Equal entries are not always repeated. “Also recorded” adds a separate entry of the source.

Columns and labels:
[1] = tested on: thymidine-kinase deficient Oka VZV strain in HEL cells; assay: Viral plaque formation reduction in HEL cells inoculated with VZV Oka strain; type: cell-based, Varicella Zoster virus; conditions: for antiviral activity (in words): in vitro
[2] = Pilot oral pharmacokinetic study in female mice, plasma Compound 1 by HPLC with fluorescence detection; type: in vivo; conditions: single oral gavage 31.25 mg/kg vs Compound 1 25 mg/kg

| Structure (SMILES) | antiviral activity (in words) [1] | EC50 ([1]; Human alphaherpesvirus 3, HEL, read-out: EC50 in VZV OKA) | plasma concentrations of Compound 1 compared to mice receiving Compound 1 (in words) [2] |
| --- | --- | --- | --- |
| CCCCCc1ccc(-c2cc3cn(C4CC(O)C(COC(=O)C(N)C(C)C)O4)c(=O)nc3o2)cc1.Cl (stereo not shown) [Compound 6] | active | – | – |
| CCCCCc1ccc(-c2cc3cn(C4CC(O)C(COC(=O)C(N)C(C)C)O4)c(=O)nc3o2)cc1 (stereo not shown) [Compound 5] | active; also recorded: comparable in vitro antiviral activity to Compound 1 | 16 nM and 0.008 µg/mL | much higher |
